Test results from patent US9616040B2 (priority 2016, dated 2017).
Where “and” joins values, the source holds several entries; their conditions need not be identical. Equal entries are not always repeated.

How the values were obtained:
[1] = administered in large quantities; cited from earlier work
[2] = In vitro resorption of bovine vertebral cortical bone sections (weight change after incubation)
Description: Fresh bovine vertebral bone was cut into 1-3 g sections with a diamond saw blade. Non-cortical medullary bone was trimmed from the cortical bone and the sections were dried while incubated for 12 hours at 37° C. and then weighed. […] Bone sections were then dried and reweighed.

[3] = citric acid 0.001M, pH 3.25, 37° C., 96 hours
[4] = citric acid 0.01M, pH 2.62, 37° C., 96 hours
[5] = citric acid 0.1M, pH 2.08, 37° C., 96 hours
[6] = citric acid 1M, pH 1.57, 37° C., 96 hours
[7] = sodium citrate 0.001M, pH 7.65, 37° C., 96 hours
[8] = sodium citrate 0.01M, pH 7.78, 37° C., 96 hours
[9] = sodium citrate 0.1M, pH 9.27, 37° C., 96 hours
[10] = sodium citrate 1M, pH 8.67, 37° C., 96 hours

Question: Which toxicity [1] does the source give for `O=C(O)CC(O)(CC(=O)O)C(=O)O` [Citrate] here?
Answer: The toxicity was “non-toxic”.

Question: With `O=C(O)CC(O)(CC(=O)O)C(=O)O` [Citric acid, citric acid] as the compound, how does the “% change” value [2, 3] read?
Answer: Its value is “+0.00349%”.

Question: What about the Wt. change [2, 3] of the same compound?
Answer: Its Wt. change is “+0.00432 g”.

Question: And the “% change” value [2, 4]?
Answer: The value was −0.04435%.

Question: What about the Wt. change [2, 4] of the same compound?
Answer: Its Wt. change is -0.06128 g.

Question: And the “% change” value [2, 5]?
Answer: The value was −0.1198%.

Question: What about the Wt. change [2, 5] of the same compound?
Answer: The Wt. change was -0.1916 g.

Question: And the “% change” value [2, 6]?
Answer: Its value is −0.288%.

Question: And the Wt. change [2, 6]?
Answer: The Wt. change was -0.4863 g.

Question: What about the “dependence of bone resorption” value ([2]; citric acid, 37° C., 96 hours) of the same compound?
Answer: Its value is “pH dependent”.

Question: What does the source list for `O=C([O-])CC(O)(CC(=O)[O-])C(=O)[O-].[Na+].[Na+].[Na+]` [Sodium citrate, sodium citrate]?
Answer: % change [2, 7]: −0.00037%; Wt. change [2, 7]: -0.00077 g; % change [2, 8]: −0.01319%; Wt. change [2, 8]: -0.03261 g; % change ([2]; sodium citrate 0.1M, pH 9.27, 37° C.): −0.03159% and −0.00551%; % change [2, 9]: −0.01116%; Wt. change [2, 9]: -0.01593 g; % change ([2]; sodium citrate 0.125M, pH 9.20, 37° C.): −0.00109% and −0.03799%; % change ([2]; sodium citrate 0.15M, pH 9.16, 37° C.): −0.04659% and −0.05754%; % change ([2]; sodium citrate 0.25M, pH 9.12, 37° C.): −0.00373% and −0.01174%; % change ([2]; sodium citrate 0.55M, pH 8.68, 37° C.): −0.00196% and −0.01386%; % change [2, 10]: −0.01873%; Wt. change [2, 10]: -0.04881 g; molarity of greatest resorption of bone ([2]; sodium citrate, 37° C., 168 hours): 0.15 M
